Assay results taken from ChEMBL document CHEMBL4387701, “H2depda: An acyclic adjuvant potentiates meropenem activity in vitro against metallo-β-lactamase-producing enterobacterales” (Eur J Med Chem, 2019).
Converted amounts (≈) assume the structure as drawn. The source made the active and inactive calls. No cut-off for these calls is given here.

Experiments:
Escherichia coli [1] = assay: Effect on growth of Escherichia coli isolate 18 after 24 hrs by broth microdilution method; assay type: organism-based
Enterobacter cloacae [2] = assay: Inhibition of IMP4 in Enterobacter cloacae isolate 15 assessed as potentiation of meropenem-induced antibacterial activity by measuring meropenem MIC after 24 hrs by broth microdilution method (reference value: 32 ug/ml)
[3] = target: T1, Metallo-beta-lactamase NDM-4 (Escherichia coli) (UniProt H6WZS9); assay: Inhibition of Escherichia coli isolate 3 NDM4 assessed as potentiation of meropenem-induced antibacterial activity by measuring reduction in meropenem MIC after 24 hrs by broth microdilution method relative to meropenem alone
T1 sequence (whole entry): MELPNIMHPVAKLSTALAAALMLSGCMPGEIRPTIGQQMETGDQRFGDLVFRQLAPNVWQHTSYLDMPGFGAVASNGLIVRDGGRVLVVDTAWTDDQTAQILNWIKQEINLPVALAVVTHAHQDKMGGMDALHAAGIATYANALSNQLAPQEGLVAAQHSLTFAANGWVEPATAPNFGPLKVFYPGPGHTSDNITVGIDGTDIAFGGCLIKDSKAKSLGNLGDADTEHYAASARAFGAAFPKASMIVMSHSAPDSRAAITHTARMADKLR

Citrobacter freundii [4] = assay: Inhibition of NDM1 in Citrobacter freundii clinical isolate 7 assessed as potentiation of meropenem-induced antibacterial activity by measuring meropenem MIC after 24 hrs by broth microdilution assay
Escherichia coli [5] = assay: Effect on growth of Escherichia coli isolate 9 after 24 hrs by broth microdilution assay; assay type: organism-based
Escherichia coli [6] = assay: Effect on growth of Escherichia coli isolate 2 after 24 hrs by broth microdilution assay; assay type: organism-based
Escherichia coli [7] = assay: Inhibition of NDM1 in Escherichia coli isolate 8 assessed as potentiation of meropenem-induced antibacterial activity by measuring meropenem MIC after 24 hrs by broth microdilution assay (reference value: 320 ug/ml)
Escherichia coli [8] = assay: Inhibition of NDM-7 in Escherichia coli isolate 2 assessed as potentiation of meropenem-induced antibacterial activity by measuring meropenem MIC after 24 hrs by broth microdilution assay (reference value: 640 ug/ml)
[9] = Inhibition of Stenotrophomonas maltophilia NDM1 expressed in Escherichia coli BL21 (DE3) expressing measured after 15 minutes at interval of 60 secs
Enterobacter cloacae [10] = assay: Effect on growth of Enterobacter cloacae isolate 16 after 24 hrs by broth microdilution method; assay type: organism-based
[11] = target: T1, Metallo-beta-lactamase NDM-4 (Escherichia coli); assay: Inhibition of NDM4 in Escherichia coli ATCC 25922 assessed as potentiation of meropenem-induced antibacterial activity by measuring zone of inhibition by agar disk diffusion method
Klebsiella pneumoniae [12] = assay: Effect on growth of Klebsiella pneumoniae isolate 13 after 24 hrs by broth microdilution method; assay type: organism-based
Klebsiella pneumoniae [13] = assay: Inhibition of IMP4 in Klebsiella pneumoniae isolate 12 assessed as potentiation of meropenem-induced antibacterial activity by measuring meropenem MIC after 24 hrs by broth microdilution method (reference value: 16 ug/ml)
Proteus mirabilis [14] = assay: Effect on growth of Proteus mirabilis isolate 19 after 24 hrs by broth microdilution method; assay type: organism-based
Escherichia coli [15] = assay: Effect on growth of NDM4-positive Escherichia coli assessed as bacterial growth at 64 ug/mL after 24 hrs by broth microdilution method relative to control; assay type: organism-based
Proteus mirabilis [16] = assay: Inhibition of IMP4 in Proteus mirabilis isolate 19 assessed as potentiation of meropenem-induced antibacterial activity by measuring meropenem MIC after 24 hrs by broth microdilution method (reference value: 320 ug/ml)
Klebsiella pneumoniae [17] = assay: Effect on growth of Klebsiella pneumoniae isolate 17 after 24 hrs by broth microdilution method; assay type: organism-based
Klebsiella pneumoniae [18] = assay: Inhibition of IMP4 in Klebsiella pneumoniae isolate 10 assessed as potentiation of meropenem-induced antibacterial activity by measuring meropenem MIC after 24 hrs by broth microdilution method (reference value: 64 ug/ml)
Enterobacter cloacae [19] = assay: Inhibition of NDM1 in Enterobacter cloacae isolate 4 assessed as potentiation of meropenem-induced antibacterial activity by measuring meropenem MIC after 24 hrs by broth microdilution assay (reference value: 640 ug/ml)
Escherichia coli [20] = assay: Inhibition of IMP4 in Escherichia coli isolate 14 assessed as potentiation of meropenem-induced antibacterial activity by measuring meropenem MIC after 24 hrs by broth microdilution method (reference value: 16 ug/ml)
[21] = Cytotoxicity against human HeLa cells assessed as inhibition of growth at 1000 ug/mL after 24 hrs by CCK8 assay relative to control; assay type: cell-based; settings: read-out: GI
Klebsiella pneumoniae [22] = assay: Inhibition of IMP4 in Klebsiella pneumoniae isolate 13 assessed as potentiation of meropenem-induced antibacterial activity by measuring meropenem MIC after 24 hrs by broth microdilution method (reference value: 320 ug/ml)
[23] = target: T1, Metallo-beta-lactamase NDM-4 (Escherichia coli); assay: Inhibition of NDM4 in Escherichia coli isolate 3 assessed as potentiation of meropenem-induced bactericidal activity at 4 times MIC incubated for 24 hrs followed by replating on agar plates for 16 to 18 hrs and measured up to 24 hrs by time kill assay
Escherichia coli [24] = assay: Effect on growth of Escherichia coli isolate 11 after 24 hrs by broth microdilution method; assay type: organism-based
Enterobacter cloacae [25] = assay: Inhibition of NDM1 in Enterobacter cloacae isolate 5 assessed as potentiation of meropenem-induced antibacterial activity by measuring meropenem MIC after 24 hrs by broth microdilution assay (reference value: 640 ug/ml)
Enterobacter cloacae [26] = assay: Effect on growth of Enterobacter cloacae isolate 6 after 24 hrs by broth microdilution assay; assay type: organism-based
Klebsiella pneumoniae [27] = assay: Effect on growth of Klebsiella pneumoniae isolate 12 after 24 hrs by broth microdilution method; assay type: organism-based
Citrobacter freundii [28] = assay: Effect on growth of Citrobacter freundii isolate 7 after 24 hrs by broth microdilution assay; assay type: organism-based
Escherichia coli [29] = assay: Inhibition of NDM1 in Escherichia coli isolate 1 assessed as potentiation of meropenem-induced antibacterial activity by measuring meropenem MIC after 24 hrs by broth microdilution assay (reference value: 1280 ug/ml)
Enterobacter cloacae [30] = assay: Inhibition of IMP4 in Enterobacter cloacae clinical isolate 15 assessed as potentiation of meropenem-induced antibacterial activity by measuring reduction in meropenem MIC after 24 hrs by broth microdilution method (reference value: 32 ug/ml)
HeLa = assay: Cytotoxicity against human HeLa cells assessed as inhibition of growth after 24 hrs by CCK8 assay; assay type: cell-based
[31] = target: T1, Metallo-beta-lactamase NDM-4 (Escherichia coli); assay: Inhibition of NDM4 in Escherichia coli ATCC 25922 assessed as potentiation of meropenem-induced antibacterial activity by measuring diameter of inhibition zone measured after 18 hrs by agar disk diffusion method
Escherichia coli [32] = assay: Inhibition of IMP4 in Escherichia coli isolate 11 assessed as potentiation of meropenem-induced antibacterial activity by measuring meropenem MIC after 24 hrs by broth microdilution method (reference value: 32 ug/ml)
[33] = target: T1, Metallo-beta-lactamase NDM-4 (Escherichia coli); assay: Inhibition of NDM4 in Escherichia coli isolate 3 assessed as potentiation of meropenem-induced bactericidal activity by measuring bacterial killing in late exponential phase at 64 ug/ml incubated for 24 hrs followed by replating on agar plates for 16 to 18 hrs and measured up to 24 hrs by time kill assay; settings: TDE = time-dependent effect
Escherichia coli [34] = assay: Inhibition of NDM1 in Escherichia coli isolate 9 assessed as potentiation of meropenem-induced antibacterial activity by measuring meropenem MIC after 24 hrs by broth microdilution assay

Row | SMILES | MIC (Escherichia coli [1]) [µg/mL] | MIC (Enterobacter cloacae [2]) [µg/mL] | fold change (FC) [3] | MIC (Citrobacter freundii [4]) [µg/mL] | MIC (Escherichia coli [5]) [µg/mL] | MIC (Escherichia coli [6]) [µg/mL] | MIC (Escherichia coli [7]) [µg/mL] | MIC (Escherichia coli [8]) [µg/mL] | IC50 [9] [nM] | MIC (Enterobacter cloacae [10]) [µg/mL] | inhibition zone (IZ) [11] [mm] | MIC (Klebsiella pneumoniae [12]) [µg/mL] | MIC (Klebsiella pneumoniae [13]) [µg/mL] | MIC (Proteus mirabilis [14]) [µg/mL] | Activity (Escherichia coli [15]) [%] | MIC (Proteus mirabilis [16]) [µg/mL] | MIC (Klebsiella pneumoniae [17]) [µg/mL] | MIC (Klebsiella pneumoniae [18]) [µg/mL] | MIC (Enterobacter cloacae [19]) [µg/mL] | MIC (Escherichia coli [20]) [µg/mL] | also measured
1 | O=C(O)c1cccc(CNCCNCc2cccc(C(=O)O)n2)n1 | 32 (≈ 96.9 µM) | 0.5 | 41000 | 1 | 32 (≈ 96.9 µM) | 32 (≈ 96.9 µM) | 0.0625 | 0.125 | 170 | 32 (≈ 96.9 µM) | 20.2 | 32 (≈ 96.9 µM) | 0.5 | 32 (≈ 96.9 µM) | 95 | 2 | 32 (≈ 96.9 µM) | 0.5 | 0.25 | 4 | inhibition at 24 h, 1000 ug/mL [21]: < 50%; MIC (Klebsiella pneumoniae [22]): 4 µg/mL; inhibition [23]: Active; MIC (Escherichia coli [24]): 64 µg/mL (≈ 194 µM); MIC (Enterobacter cloacae [25]): 0.5 µg/mL; MIC (Enterobacter cloacae [26]): 32 µg/mL (≈ 96.9 µM); MIC (Klebsiella pneumoniae [27]): 64 µg/mL (≈ 194 µM); MIC (Citrobacter freundii [28]): 32 µg/mL (≈ 96.9 µM); MIC (Escherichia coli [29]): 0.125 µg/mL; fold change (FC) (Enterobacter cloacae [30]): 64; IC50 (HeLa): > 1000 µg/mL; inhibition zone (IZ) [31]: 2 to 5 mm; MIC (Escherichia coli [32]): 4 µg/mL; inhibition [33]: Tde; MIC (Escherichia coli [34]): 0.25 µg/mL
2 | COc1ccc(CN(CCN(Cc2ccc(OC)cc2)Cc2cccc(C(=O)O)n2)Cc2cccc(C(=O)O)n2)cc1 | 32 (≈ 56.1 µM) | 0.5 | 41000 | 1 | 32 (≈ 56.1 µM) | 64 (≈ 112 µM) | 0.0625 | 0.0625 | 40 | 32 (≈ 56.1 µM) | 21.4 | 32 (≈ 56.1 µM) | 1 | 32 (≈ 56.1 µM) | 95 | 2 | 32 (≈ 56.1 µM) | 1 | 0.0625 | 4 | inhibition at 24 h, 1000 ug/mL [21]: < 50%; MIC (Klebsiella pneumoniae [22]): 4 µg/mL; inhibition [23]: Active; MIC (Escherichia coli [24]): 64 µg/mL (≈ 112 µM); MIC (Enterobacter cloacae [25]): 0.5 µg/mL; MIC (Enterobacter cloacae [26]): 32 µg/mL (≈ 56.1 µM); MIC (Klebsiella pneumoniae [27]): 32 µg/mL (≈ 56.1 µM); MIC (Citrobacter freundii [28]): 32 µg/mL (≈ 56.1 µM); MIC (Escherichia coli [29]): 0.125 µg/mL; fold change (FC) (Enterobacter cloacae [30]): 64; IC50 (HeLa): > 1000 µg/mL; inhibition zone (IZ) [31]: 2 to 5 mm; MIC (Escherichia coli [32]): 4 µg/mL; inhibition [33]: Tde; MIC (Escherichia coli [34]): 0.125 µg/mL
